The text below walks through data of patent US10457677B2 (priority 2015, dated 2019).

The target of the experiment is purified human recombinant ATM (ataxia telangiectasia mutated), full length (Homo sapiens (Human), UniProt Q13315). Nature of the experiment: ATM kinase assay - determination of ATM inhibition (IC50 ATM), TR-FRET. The note with it: 10 μM ATP, substrate p53. In kind it is biochemical. The method, then:
ATM kinase assay—determination of ATM inhibition (IC50 ATM):
The IC50 value was determined with the aid of a biochemical ATM kinase assay. The assay consists of two steps: the enzymatic reaction and the detection step. Firstly, ATM (ataxia telangiectasia mutated) protein and the test substance are incubated at different concentrations with addition of substrate protein p53 and ATP. ATM mediates the phosphorylation of p53 at several positions, including at amino acid S15. The amount of phosphorylated p53 is determined with the aid of specific antibodies and the TR-FRET technique. The enzymatic ATM assay is carried out as TR-FRET (HTRF™, Cisbio Bioassays) based 384-well assay. In the first step, purified human recombinant ATM (human ATM, full length, GenBank ID NM_000051, expressed in a mammal cell line) is incubated in assay buffer for 15 minutes with the ATM inhibitor in various concentrations and without test substance as negative or neutral control. The assay buffer comprises 25 mM HEPES pH 8.0, 10 mM Mg(CH3COO)2, 1 mM MnCl2, 0,1% BSA and 0,01% Brij® 35, 5 mM dithiothreitol (DTT). […] In the second step, purified human recombinant cmyc-labelled p53 (human p53, full length, GenBank ID BC003596, expressed in Sf21 insect cells) and ATP are added, and the reaction mixture is incubated at 22° C. for 30-35 minutes. The pharmacologically relevant assay volume is 5 μl. […] The enzymatic reaction is stopped by addition of EDTA. […] After incubation, usually for 2 hours (between 1.5 and 15h), for signal development, the plates are analysed in a plate reader (EnVision, PerkinElmer) using TRF mode (and with laser excitation). […] The measurement data were processed by means of Genedata Screener software.

pIC50: −log10 of the molar value. A value given as a limit tells only on which side of the number the result lay.

Sequence of purified human recombinant ATM (ataxia telangiectasia mutated), full length (Q13315 whole entry, change not shown): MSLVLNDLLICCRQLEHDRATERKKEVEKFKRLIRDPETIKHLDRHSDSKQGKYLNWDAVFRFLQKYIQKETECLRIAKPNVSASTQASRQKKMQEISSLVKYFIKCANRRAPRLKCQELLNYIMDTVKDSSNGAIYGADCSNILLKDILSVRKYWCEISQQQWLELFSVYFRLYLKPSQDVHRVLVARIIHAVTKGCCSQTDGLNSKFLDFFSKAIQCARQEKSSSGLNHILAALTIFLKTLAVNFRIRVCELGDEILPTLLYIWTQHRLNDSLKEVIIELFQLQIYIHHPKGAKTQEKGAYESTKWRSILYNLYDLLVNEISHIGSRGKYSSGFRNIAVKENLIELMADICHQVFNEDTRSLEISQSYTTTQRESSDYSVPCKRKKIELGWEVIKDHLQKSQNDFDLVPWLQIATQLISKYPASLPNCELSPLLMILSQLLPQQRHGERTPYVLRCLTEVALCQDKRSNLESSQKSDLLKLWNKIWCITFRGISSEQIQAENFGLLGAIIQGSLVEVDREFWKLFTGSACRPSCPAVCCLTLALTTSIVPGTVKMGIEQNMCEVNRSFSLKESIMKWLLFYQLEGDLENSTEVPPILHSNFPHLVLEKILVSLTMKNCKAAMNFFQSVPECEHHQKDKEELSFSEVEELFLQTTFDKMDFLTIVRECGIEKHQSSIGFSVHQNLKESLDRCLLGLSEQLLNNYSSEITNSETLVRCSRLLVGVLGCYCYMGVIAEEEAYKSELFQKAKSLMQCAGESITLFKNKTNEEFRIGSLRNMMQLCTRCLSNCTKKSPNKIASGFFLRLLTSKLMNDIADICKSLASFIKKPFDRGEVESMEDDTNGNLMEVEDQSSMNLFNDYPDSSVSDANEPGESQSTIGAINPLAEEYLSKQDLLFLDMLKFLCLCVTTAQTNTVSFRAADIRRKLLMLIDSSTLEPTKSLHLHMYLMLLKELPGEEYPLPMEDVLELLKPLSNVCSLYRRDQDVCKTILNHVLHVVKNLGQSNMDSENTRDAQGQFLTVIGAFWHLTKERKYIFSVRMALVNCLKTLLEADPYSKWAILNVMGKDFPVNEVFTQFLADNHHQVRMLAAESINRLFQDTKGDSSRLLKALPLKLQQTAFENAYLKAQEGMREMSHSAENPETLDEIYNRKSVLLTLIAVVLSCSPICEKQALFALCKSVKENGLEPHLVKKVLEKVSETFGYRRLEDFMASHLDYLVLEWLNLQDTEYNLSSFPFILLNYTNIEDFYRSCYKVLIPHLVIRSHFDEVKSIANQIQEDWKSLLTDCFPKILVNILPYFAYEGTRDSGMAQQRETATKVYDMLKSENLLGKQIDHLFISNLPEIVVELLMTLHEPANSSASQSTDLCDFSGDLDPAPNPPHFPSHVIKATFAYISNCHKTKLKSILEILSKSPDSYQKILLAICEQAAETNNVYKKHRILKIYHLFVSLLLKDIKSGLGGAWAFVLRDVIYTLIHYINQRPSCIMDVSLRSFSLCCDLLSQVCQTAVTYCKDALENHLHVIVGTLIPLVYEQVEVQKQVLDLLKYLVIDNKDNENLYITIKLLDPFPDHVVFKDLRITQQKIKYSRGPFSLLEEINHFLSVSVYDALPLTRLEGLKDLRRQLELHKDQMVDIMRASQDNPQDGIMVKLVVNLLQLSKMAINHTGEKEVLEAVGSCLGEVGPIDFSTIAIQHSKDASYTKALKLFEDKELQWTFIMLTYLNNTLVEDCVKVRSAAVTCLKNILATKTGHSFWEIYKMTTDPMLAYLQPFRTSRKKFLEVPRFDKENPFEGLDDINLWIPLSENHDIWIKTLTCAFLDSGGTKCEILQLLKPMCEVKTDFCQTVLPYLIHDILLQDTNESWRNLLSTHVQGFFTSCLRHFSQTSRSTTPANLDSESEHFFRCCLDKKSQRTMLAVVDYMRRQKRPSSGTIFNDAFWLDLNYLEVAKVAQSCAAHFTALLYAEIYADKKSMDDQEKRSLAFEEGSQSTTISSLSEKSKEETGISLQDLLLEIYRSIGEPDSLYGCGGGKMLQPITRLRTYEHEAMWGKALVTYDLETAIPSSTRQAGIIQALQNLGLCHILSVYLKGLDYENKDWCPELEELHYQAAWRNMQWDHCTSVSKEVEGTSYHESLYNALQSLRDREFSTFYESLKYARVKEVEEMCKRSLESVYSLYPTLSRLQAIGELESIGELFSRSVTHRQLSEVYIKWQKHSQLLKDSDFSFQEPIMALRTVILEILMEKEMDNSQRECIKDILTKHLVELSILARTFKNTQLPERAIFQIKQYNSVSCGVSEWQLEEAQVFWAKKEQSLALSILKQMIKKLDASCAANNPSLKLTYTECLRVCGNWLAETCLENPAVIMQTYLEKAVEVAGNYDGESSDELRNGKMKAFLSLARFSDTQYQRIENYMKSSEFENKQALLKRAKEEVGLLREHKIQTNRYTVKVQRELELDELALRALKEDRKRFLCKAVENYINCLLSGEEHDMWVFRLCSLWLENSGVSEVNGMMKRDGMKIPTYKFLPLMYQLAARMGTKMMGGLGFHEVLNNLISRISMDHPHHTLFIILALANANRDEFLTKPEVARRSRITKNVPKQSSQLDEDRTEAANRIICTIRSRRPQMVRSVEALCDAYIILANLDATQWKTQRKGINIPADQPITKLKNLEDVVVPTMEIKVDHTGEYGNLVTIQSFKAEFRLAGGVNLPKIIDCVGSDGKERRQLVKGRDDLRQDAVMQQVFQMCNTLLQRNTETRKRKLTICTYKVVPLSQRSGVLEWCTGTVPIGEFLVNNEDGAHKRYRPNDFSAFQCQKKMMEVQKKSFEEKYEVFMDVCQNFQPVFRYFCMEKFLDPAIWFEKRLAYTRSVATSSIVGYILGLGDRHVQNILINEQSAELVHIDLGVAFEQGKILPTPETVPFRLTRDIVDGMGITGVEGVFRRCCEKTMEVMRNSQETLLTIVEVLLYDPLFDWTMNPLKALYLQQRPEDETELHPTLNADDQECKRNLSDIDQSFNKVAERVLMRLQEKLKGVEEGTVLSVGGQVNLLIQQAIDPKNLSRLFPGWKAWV

One may read the pIC50 as −log10 of the IC50, conventionally taken in molar units. Regarding `COc1cc2ncc3c(c2cc1-c1cn(C)nn1)n(-c1c(F)cncc1OC)c(=O)n3C` [compound 131, 1-(3-Fluoro-5-methoxy-pyridin-4-yl)-7-methoxy-3-methyl-8-(1-methyl-1H-1,2,3-triazol-4-yl)-1,3-dihydroimidazo[4,5-c]-quinolin-2-one], the pIC50 was over 8.00. Then `COc1cc2ncc3c(c2cc1-c1ccc2nc(C)[nH]c2c1)n(-c1cn(C)nc1C)c(=O)n3C` [compound 132, 1-(1,3-Dimethyl-1H-pyrazol-4-yl)-7-methoxy-3-methyl-8-(2-methyl-3H-benzo-imidazol-5-yl)-1,3-dihydro-imidazo[4,5-c]quinolin-2-one], with over 9.00; and `COc1cnc(-n2c(=O)n(C)c3cnc4cc(OC)c(-c5cn(C)nn5)cc4c32)c(F)c1` [compound 133, 1-(3-Fluoro-5-methoxy-pyridin-2-yl)-7-methoxy-3-methyl-8-(1-methyl-1H-1,2,3-triazol-4-yl)-1,3-dihydroimidazo[4,5-c] quinolin-2-one], with over 8.00; and `COc1cc2ncc3c(c2cc1-c1cnn[nH]1)n(-c1c(F)cncc1OC)c(=O)n3C` [compound 134, 1-(3-Fluoro-5-methoxy-pyridin-4-yl)-7-methoxy-3-methyl-8-(3H-1,2,3-triazol-4-yl)-1,3-dihydroimidazo-[4,5-c] quinolin-2-one], with over 9.00.

As for `CCn1cc(-n2c(=O)n(C)c3cnc4cc(OC)c(-c5cn(C)nc5C)cc4c32)c(C)n1` [compound 135, 8-(1,3-Dimethyl-1H-pyrazol-4-yl)-1-(1-ethyl-3-methyl-1H-pyrazol-4-yl)-7-methoxy-3-methyl-1,3-dihydro-imidazo[4,5-c]quinolin-2-one], the negative logarithm of the IC50 (pIC50) is over 9.00.

For the compound `COc1ccc(-c2cc3c(cc2OC)ncc2c3n(-c3c(F)cncc3OC)c(=O)n2C)cn1` [compound 137, 1-(3-Fluoro-5-methoxy-pyridin-4-yl)-7-methoxy-8-(6-methoxypyridin-3-yl)-3-methyl-1,3-dihydroimidazo-[4,5-c]quinolin-2-one], the pIC50 was over 8.00.

Turning to `CNC(=O)c1cnc(-n2c(=O)n(C)c3cnc4cc(OC)c(-c5cn(C)nc5C)cc4c32)c(F)c1` [compound 139, 6-[8-(1,3-Dimethyl-1H-pyrazol-4-yl)-7-methoxy-3-methyl-2-oxo-2,3-dihydro-imidazo[4,5-c]quinolin-1-yl]-5-fluoro-N-methyl-nicotinamid], the pIC50 is over 9.00. Under `CCn1cc(-c2cc3c(cc2OC)ncc2c3n(-c3c(F)cncc3OC)c(=O)n2C)c(C)n1` [compound 142, 8-(1-Ethyl-3-methyl-1H-pyrazol-4-yl)-1-(3-fluoro-5-methoxypyridin-4-yl)-7-methoxy-3-methyl-1,3-dihydroimidazo[4,5-c] quinolin-2-one] stands over 9.00; under `COc1cc2ncc3c(c2cc1-c1cnn(C(F)F)c1)n(-c1c(F)cncc1OC)c(=O)n3C` [compound 143, 8-(1-Difluoromethyl-1H-pyrazol-4-yl)-1-(3-fluoro-5-methoxypyridin-4-yl)-7-methoxy-3-methyl-1,3-dihydroimidazo[4,5-c] quinolin-2-one], over 9.00.

Turning to `COc1cnc(-n2c(=O)n(C)c3cnc4cc(OC)c(-c5ccc6nc(C)[nH]c6c5)cc4c32)c(F)c1` [compound 144, 1-(3-Fluoro-5-methoxy-pyridin-2-yl)-7-methoxy-3-methyl-8-(2-methyl-3H-benzoimidazol-5-yl)-1,3-dihydroimidazo[4,5-c]-quinolin-2-one], the negative-log IC50 (pIC50) is over 9.00. Under `COc1cc2ncc3c(c2cc1-c1cnn(C)c1)n(-c1c(F)cncc1OC(F)F)c(=O)n3C` [compound 146, 1-(3-Difluoromethoxy-5-fluoropyridin-4-yl)-7-methoxy-3-methyl-8-(1-methyl-1H-pyrazol-4-yl)-1,3-dihydroimidazo[4,5-c]-quinolin-2-one] stands over 9.00. Then `COc1cc2ncc3c(c2cc1-c1cnn(C)c1)n(-c1c(F)cncc1OCF)c(=O)n3C` [compound 148], with over 9.00; and `COc1cc2ncc3c(c2cc1-c1n[nH]cc1C)n(-c1cn(C)nc1C)c(=O)n3C` [compound 151, 1-(1,3-Dimethyl-1H-pyrazol-4-yl)-7-methoxy-3-methyl-8-(4-methyl-1H-pyrazol-3-yl)-1,3-dihydroimidazo[4,5-c] quinolin-2-one], with over 7.30. Under `COc1cc2ncc3c(c2cc1-c1cnc2nc(C)[nH]c2c1)n(-c1c(F)cncc1OC)c(=O)n3C` [compound 152, 1-(3-Fluoro-5-methoxy-pyridin-4-yl)-7-methoxy-3-methyl-8-(2-methyl-1H-imidazo[4,5-b]pyridin-6-yl)-1,3-dihydroimidazo[4,5-c]-quinolin-2-one] stands over 9.00; under `COc1cnc(-n2c(=O)n(C)c3cnc4cc(OC)c(-c5ccc6nc[nH]c6c5)cc4c32)c(F)c1` [compound 153, 8-(3H-Benzimidazol-5-yl)-1-(3-fluoro-5-methoxypyridin-2-yl)-7-methoxy-3-methyl-1,3-dihydroimidazo[4,5-c]-quinolin-2-one], over 8.00. Take `COc1cc2ncc3c(c2cc1-c1cnc2nc(C)[nH]c2c1)n(-c1cn(C)nc1C)c(=O)n3C` [compound 154, 1-(1,3-Dimethyl-1H-pyrazol-4-yl)-7-methoxy-3-methyl-8-(2-methyl-1H-imidazo[4,5-b]pyridin-6-yl)-1,3-dihydro-imidazo[4,5-c]quinolin-2-one]: the pIC50 is over 9.00.

With `CCc1cnccc1-n1c(=O)n(C)c2cnc3cc(OC)c(-c4cnn(C)c4)cc3c21` [compound 156, 1-(3-Ethylpyridin-4-yl)-7-methoxy-3-methyl-8-(1-methyl-1H-pyrazol-4-yl)-1,3-dihydroimidazo[4,5-c] quinolin-2-one], the pIC50 was over 9.00. In the case of `COc1cc2ncc3c(c2cc1-c1cnn(C)n1)n(-c1ncccc1F)c(=O)n3C` [compound 158, 1-(3-Fluoropyridin-2-yl)-7-methoxy-3-methyl-8-(2-methyl-2H-1,2,3-triazol-4-yl)-1,3-dihydroimidazo-[4,5-c] quinolin-2-one], the pIC50 was over 6.30. Regarding `COc1cc2ncc3c(c2cc1-c1cnn(C)c1)n(-c1ccncc1C1CC1)c(=O)n3C` [compound 200, 1-(3-Cyclopropylpyridin-4-yl)-7-methoxy-3-methyl-8-(1-methyl-1H-pyrazol-4-yl)-1,3-dihydroimidazo[4,5-c] quinolin-2-one], the negative logarithm of the IC50 (pIC50) is over 7.30. With `COc1cc2ncc3c(c2cc1-c1cnn(C)c1)n(-c1c(F)cncc1C1CC1)c(=O)n3C` [compound 202, 1-(3-Cyclopropyl-5-fluoro-pyridin-4-yl)-7-methoxy-3-methyl-8-(1-methyl-1H-pyrazol-4-yl)-1,3-dihydro-imidazo[4,5-c]quinolin-2-one], the negative-log IC50 (pIC50) was over 9.00. `COc1cc2ncc3c(c2cc1-c1cn(C)nc1C)n(-c1ncc(OCS(C)(=O)=O)cc1F)c(=O)n3C` [compound 203, 8-(1,3-Dimethyl-1H-pyrazol-4-yl)-1-(3-fluoro-5-methyl-sulfonylmethoxypyridin-2-yl)-7-methoxy-3-methyl-1,3-dihydroimidazo[4,5-c]-quinolin-2-one]: the pIC50 was over 9.00.

Take `C=CCOc1cnc(-n2c(=O)n(C)c3cnc4cc(OC)c(-c5cnn(C)c5)cc4c32)c(F)c1` [compound 204, 1-(5-Allyloxy-3-fluoropyridin-2-yl)-7-methoxy-3-methyl-8-(1-methyl-1H-pyrazol-4-yl)-1,3-dihydroimidazo[4,5-c]-quinolin-2-one]: the pIC50 was over 9.00. Then `CNCCOc1cnc(-n2c(=O)n(C)c3cnc4cc(OC)c(-c5cnn(C)c5)cc4c32)c(F)c1` [compound 206], with over 8.00; and `COc1cc2ncc3c(c2cc1-c1cnn(C)c1)n(-c1ncc(OCC2CN(C)C2)cc1F)c(=O)n3C` [compound 207, 1-[3-Fluoro-5-(1-methyl-azetidin-3-ylmethoxy)-pyridin-2-yl]-7-methoxy-3-methyl-8-(1-methyl-1H-pyrazol-4-yl)-1,3-dihydro-imidazo[4,5-c]quinolin-2-one], with over 8.00; and `COc1cc2ncc3c(c2cc1-c1cnn(C2CNC2)c1)n(-c1c(F)cncc1OC)c(=O)n3C` [compound 208, 8-[1-(Azetidin-3-yl)-1H-pyrazol-4-yl]-1-(3-fluoro-5-methoxypyridin-4-yl)-7-methoxy-3-methyl-1H,2H,3H-imidazo[4,5-c]-quinolin-2-one], with over 8.00.
